Values quoted from earlier work, collected in US20210008004A1, “CANNABINOID FORMULATIONS AND METHODS INCLUDING THE ANTIOXIDANT C60” (priority 2017, published 2021).

Legend:
CB1 receptor = CB1 receptor (Homo sapiens, UniProt P21554)
peripheral CB2-receptors = peripheral CB2-receptors (Homo sapiens, UniProt P34972); conditions: in vivo
Sequence of peripheral CB2-receptors (P34972 whole entry): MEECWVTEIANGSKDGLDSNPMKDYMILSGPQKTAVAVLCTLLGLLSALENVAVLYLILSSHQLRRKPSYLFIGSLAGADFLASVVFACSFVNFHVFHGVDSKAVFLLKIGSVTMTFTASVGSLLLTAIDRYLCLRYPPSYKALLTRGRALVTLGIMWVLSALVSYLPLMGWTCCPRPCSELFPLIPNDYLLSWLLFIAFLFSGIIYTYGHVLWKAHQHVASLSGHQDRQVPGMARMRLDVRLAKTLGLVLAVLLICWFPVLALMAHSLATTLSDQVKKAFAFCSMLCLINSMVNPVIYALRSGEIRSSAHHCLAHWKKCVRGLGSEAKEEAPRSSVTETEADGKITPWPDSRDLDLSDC

Sequence of CB1 receptor (P21554 whole entry): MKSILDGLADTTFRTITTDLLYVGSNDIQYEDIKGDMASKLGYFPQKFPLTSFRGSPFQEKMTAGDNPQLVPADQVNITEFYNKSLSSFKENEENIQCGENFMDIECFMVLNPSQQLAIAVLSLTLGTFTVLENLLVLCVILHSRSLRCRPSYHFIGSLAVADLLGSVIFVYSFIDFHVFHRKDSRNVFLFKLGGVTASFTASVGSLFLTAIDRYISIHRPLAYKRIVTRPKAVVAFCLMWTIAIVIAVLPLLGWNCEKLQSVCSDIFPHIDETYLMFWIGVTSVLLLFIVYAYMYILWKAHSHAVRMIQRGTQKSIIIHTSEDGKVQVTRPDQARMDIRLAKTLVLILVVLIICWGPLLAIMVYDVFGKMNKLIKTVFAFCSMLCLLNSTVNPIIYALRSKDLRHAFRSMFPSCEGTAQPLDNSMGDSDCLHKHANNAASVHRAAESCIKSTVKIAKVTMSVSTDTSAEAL

## c12c3c4c5c1c1c6c7c2c2c8c3c3c9c4c4c%10c5c5c1c1c6c6c%11c7c2c2c7c8c3c3c8c9c4c4c9c%10c5c5c1c1c6c6c%11c2c2c7c3c3c8c4c4c9c5c1c1c6c2c3c41 [Example C60, buckminsterfullerene]
other
  solubility in lipids or aqueous solutions: not typically soluble
rodent; even high doses
  toxicity: does not exhibit toxicity
rodent; some rodents
  rodent life span: doubled

## COc1ccc(/C=C/c2cc(OC)cc(=O)o2)cc1 [Yangonin]
CB1 receptor
  affinity to the CB1 receptor: significant affinity

## C=C1CC/C=C(\C)CC[C@@H]2[C@@H]1CC2(C)C [beta-caryophyllene]
Peripheral CB2-receptors
  agonist activity at peripheral CB2-receptors: selective agonist
